Counter-ions that a name gives are not always drawn. Like-named read-outs stand apart in the source and are kept apart here.
Target: Nrf2-Keap1 complex (Homo sapiens, UniProt Q14145)
Experiment: cell-based
Assay type: cell-based
Conditions: for activation at 16 µM / activation at 32 µM: 3 h; for activation at 16 µM: read-out: Activation 100 nL; for activation at 32 µM: read-out: Activation 200 nL
[1] = Table 2, 100 nL compound, screen run at 16 and 32 μM, 3 hr
[2] = Table 2, 200 nL compound, screen run at 16 and 32 μM, 3 hr
[3] = Table 1A, 100 nL compound, screen run at 16 and 32 μM, 3 hr
[4] = Table 1A, 200 nL compound, screen run at 16 and 32 μM, 3 hr

Sequence of Nrf2-Keap1 complex (Q14145 whole entry, one chain of several): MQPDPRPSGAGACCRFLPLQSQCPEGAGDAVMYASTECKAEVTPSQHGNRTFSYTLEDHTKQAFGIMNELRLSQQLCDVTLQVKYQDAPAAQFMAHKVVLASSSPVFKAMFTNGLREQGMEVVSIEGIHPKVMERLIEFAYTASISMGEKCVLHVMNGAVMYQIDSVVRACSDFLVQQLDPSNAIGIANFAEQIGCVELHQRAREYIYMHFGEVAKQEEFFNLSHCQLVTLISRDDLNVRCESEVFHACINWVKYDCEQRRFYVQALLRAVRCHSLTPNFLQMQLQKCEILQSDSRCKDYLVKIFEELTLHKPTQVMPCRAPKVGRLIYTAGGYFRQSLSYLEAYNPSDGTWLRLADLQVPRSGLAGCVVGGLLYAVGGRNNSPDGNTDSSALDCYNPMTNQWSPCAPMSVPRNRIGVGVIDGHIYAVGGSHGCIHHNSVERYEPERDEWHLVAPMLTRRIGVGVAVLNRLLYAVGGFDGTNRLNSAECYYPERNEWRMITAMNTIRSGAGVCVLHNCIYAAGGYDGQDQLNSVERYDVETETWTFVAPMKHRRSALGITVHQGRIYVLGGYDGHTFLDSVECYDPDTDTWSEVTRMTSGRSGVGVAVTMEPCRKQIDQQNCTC

Row | Molecule | 100 nL (luminescence) [1] | 200 nL (luminescence) [2] | activation at 16 µM | activation at 32 µM | further results
1 | CC1(C)C(=O)C=C[C@]2(C)[C@H]3CC[C@@]4(C)[C@H](c5ccoc5)OC(=O)[C@H]5O[C@]54[C@]3(C)C=C[C@@H]12 [7-DESACETOXY-6,7-DEHYDROGEDUNIN] | 1660 | 188 |  |  | Activation 100 nL: 85%; Activation 200 nL: −9%
2 | O=C(/C=C/c1ccc(O)cc1)c1ccc(O)cc1O [ISOLIQUIRITIGENIN] |  |  | 268% | 134% | 100 nL (luminescence): 4452; 200 nL (luminescence): 2364
3 | CC(CCc1ccccc1)NC(C)C(O)c1ccc(O)cc1 (stereo not drawn) [NYLIDRINHYDROCHLORIDE, reference compound] |  |  | 42% | 22% | 
4 | […](CAPE) | 2508 | 16 |  |  | Activation 100 nL: 245%; Activation 200 nL: −14%
5 | CCCCC1C(=O)N(c2ccccc2)N(c2ccc(O)cc2)C1=O (stereo not drawn) [OXYPHENBUTAZONE, reference compound] | 1760 | 3084 |  |  | Activation 100 nL: 113%; Activation 200 nL: 131%
6 | NCCc1cc(O)c(O)cc1O [OXIDOPAMINEHYDROCHLORIDE] | 1676 | 2936 | 107% | 124% | 
7 | COc1cc(O)c(C(=O)/C=C/c2ccc(O)c(OC)c2)c(OC)c1 [2′,4-DIHYDROXY-3,4′,6′-TRIMETHOXYCHALCONE] | 6104 | 7512 | 655% | 305% | 
8 | O=[N+]([O-])c1cccc2c(Br)n[nH]c12 [3-BROMO-7-NITROINDAZOLE] |  |  | 30% | 8% | hit strength in the screen (words): modest hits; 100 nL (luminescence) [3]: 632; 200 nL (luminescence) [4]: 512
9 | O=c1cc(-c2ccc(O)c(O)c2)oc2cc(O)cc(O)c12 [Luteolin, 5,7,3′,4′-tetrahydroxyflavone] |  |  |  |  | hit strength in the screen (words): much lesser active than fisetin and quercetin; hit strength in the screen (words) (listed as luteolin): very poor Nrf2 activator
10 | COc1c(O)cc2c(-c3ccccc3)cc(=O)oc2c1OC [KUHLMANNIN] | 596 | 1104 | 26% | 33% | 
11 | CC(C)c1cc2c(c(O)c1O)[C@@]1(C(=O)O)CCCC(C)(C)[C@@H]1CC2 [CARNOSICACID] | 3620 | 4604 | 372% | 182% | 
12 | [H]/N=C(\N/C(=N/[H])NCCCCCCNC(=N)NC(=N)Nc1ccc(Cl)cc1)Nc1ccc(Cl)cc1 [CHLORHEXIDINE, reference compound] | 2188 | 1750 |  |  | Activation 100 nL: 147%; Activation 200 nL: 67%
13 | COc1cc(O)c(C(=O)c2ccccc2)cc1O [CEAROIN] | 1076 | 2988 | 53% | 111% | 
14 | COc1cc([C@@H]2c3cc4c(c(O)c3C[C@H]3COC(=O)[C@@H]32)OCO4)cc(OC)c1OC [beta-PELTATIN] |  |  | 62% | 21% | 100 nL (luminescence) [3]: 910; 200 nL (luminescence) [4]: 836
15 | O=C1OC(=O)[C@H]2[C@@H]1[C@@H]1CC[C@H]2O1 [NORCANTHARIDIN] | 756 | 572 |  |  | Activation 100 nL: 45%; Activation 200 nL: 10%
16 | O=c1cc(-c2cc(O)c(O)c(O)c2)oc2cc(O)cc(O)c12 [HIERACIN] | 2502 | 1832 |  |  | Activation 100 nL: 160%; Activation 200 nL: 60%
17 | COC(=O)Nc1nc2cc(C(=O)c3ccccc3)ccc2[nH]1 [MEBENDAZOLE, reference compound] |  |  | 74% | 216% | 100 nL (luminescence) [3]: 1872; 200 nL (luminescence) [4]: 3056
18 | C=C[C@@]1(C)CC(=O)[C@]2(O)[C@@]3(C)[C@@H](O)CCC(C)(C)[C@@H]3[C@H](O)[C@H](OC(C)=O)[C@@]2(C)O1 [COLFORSIN, reference compound] | 2208 | 2568 | 91% | 120% | 
19 | COc1ccc2c(c1)OC/C(=C\c1ccc(OC)c(O)c1)C2=O [SAPPANONEADIMETHYLETHER] | 6124 | 2008 | 377% | 110% | 
20 | COc1cc([C@@H]2c3cc4c(cc3[C@@H](O)[C@H]3COC(=O)[C@H]23)OCO4)cc(OC)c1O [4′-DEMETHYLEPIPODOPHYLLOTOXIN] |  |  |  |  | 100 nL (luminescence) [3]: 3188; 200 nL (luminescence) [4]: 2844
21 | O=C(CC(=O)c1ccccc1)c1ccccc1 [DIBENZOYLMETHANE] |  |  | 66% | -8% | 100 nL (luminescence): 1368; 200 nL (luminescence): 204

Row | Molecule | 100 nL (luminescence) [1] | 200 nL (luminescence) [2] | activation at 16 µM | activation at 32 µM | further results
22 | N.N.[Cl][Pt][Cl] [CISPLATIN, reference compound] | 1100 | 1496 |  |  | Activation 100 nL: 36%; Activation 200 nL: 90%
23 | CC(=O)O[C@@H]1CC2C(C)(C)[C@H](O)C=C[C@]2(C)C2CC[C@]3(C)C(=CC(=O)O[C@H]3c3ccoc3)[C@@]21C (stereo partly drawn) [3-alpha-HYDROXYDEOXYGEDININ] | 1196 | 1764 |  |  | Activation 100 nL: 55%; Activation 200 nL: 94%
24 | O=C(/C=C/C(=O)Oc1ccccc1C(=O)O)Oc1ccccc1C(=O)O [BISSALICYLFUMARATE] |  |  | 338% | 156% | 
25 | COc1cc(O)c2c(=O)c(O)c(-c3ccc(O)c(O)c3)oc2c1 [RHAMNETIN] | 2216 | 1536 | 138% | 47% | 
26 | COC(=O)[C@H](O)[C@H]1C(C)(C)[C@H](OC(C)=O)[C@@H]2CC3=C4CC(=O)O[C@@H](c5ccoc5)[C@]4(C)CC[C@@H]3[C@@]1(C)C2=O [SWIETENOLIDE-3-ACETATE] | 1430 | 2088 |  |  | Activation 100 nL: 70%; Activation 200 nL: 115%
27 | COc1cc2c(c(OC)c1OC)-c1ccc(=O)c(O)cc1[C@@H](NC(C)=O)CC2 [COLCHICEINE] | 672 | 584 | 35% | 11% | 
28 | C#C[C@]1(O)CC[C@H]2[C@@H]3CCC4=C(CCC(=O)C4)[C@H]3CC[C@@]21C [NORETHYNODREL, reference compound] |  |  | 128% | 171% | 100 nL (luminescence): 1948; 200 nL (luminescence): 3920
29 | CC(=O)O[C@@H]1CC2C(C)(C)C=CC(=O)[C@]2(C)C2CC[C@@]3(C)[C@H](c4ccoc4)OC(=O)C4OC43[C@@]21C (stereo partly drawn) [ISOGEDUNIN] | 2724 | 3188 |  |  | Activation 100 nL: 155%; Activation 200 nL: 188%
30 | C=C1CC[C@H]2O[C@]2(C)CC[C@@H]2[C@@H]1CC2(C)C [CARYLOPHYLLENEOXIDE] | 874 | 488 |  |  | Activation 100 nL: 38%; Activation 200 nL: 2%
31 | CC(=O)O[C@@H]1C[C@H]2C(C)(C)C(=O)CC[C@]2(C)[C@H]2CC[C@@]3(C)[C@H](c4ccoc4)OC(=O)[C@H]4O[C@]43[C@@]21C [DIHYDROGEDUNIN] | 1866 | 3068 | 112% | 114% | 
32 | COC(=O)C(N)CS (stereo not drawn) [MECYSTEINEHYDROCHLORIDE, reference compound] |  |  | 82% | 216% | 100 nL (luminescence): 2028; 200 nL (luminescence): 3064
33 | O=c1oc2cc(O)ccc2s1 [TIOXOLONE, reference compound] | 3542 | 768 | 156% | 31% | 
34 | COc1cc(C)c2c(c1C=O)Oc1c(c(C)c(O)c3c1C(O)OC3=O)OC2=O (stereo not drawn) [[…]] | 1114 | 1952 | 56% | 65% | 
35 | CC(C)C1=CC2=CC[C@@H]3[C@](C)(CCC[C@@]3(C)C(=O)O)[C@H]2CC1 [ABIETICACID] |  |  | 67% | 57% | 100 nL (luminescence): 1256; 200 nL (luminescence): 1748
36 | Cn1cnc([N+](=O)[O-])c1Sc1[nH]cnc2ncnc1-2 [AZATHIOPRINE, reference compound] |  |  | 49% | 70% | 100 nL (luminescence): 948; 200 nL (luminescence): 1804; hit strength in the screen (words): modest hits
37 | CCOCN(C(=O)CCl)c1c(C)cccc1CC [ACETOCHLOR] | 1320 | 3024 | 71% | 112% | 
38 | CC(=O)O[C@@H]1CC2C(C)(C)[C@H](O)CC[C@]2(C)C2CC[C@@]3(C)[C@H](c4ccoc4)OC(=O)C4OC43[C@@]21C (stereo partly drawn) [alpha-DIHYDROGEDUNOL] | 720 | 1008 |  |  | Activation 100 nL: 41%; Activation 200 nL: 29%; Neh2-luc reporter activation: 40%
39 | CCC(C)C(=O)OC1[C@@H]2CC3=C4CC(=O)O[C@@H](c5ccoc5)[C@]4(C)CCC3[C@@](C)(C2=O)[C@@H](CC(=O)OC)C1(C)C (stereo partly drawn) [KHAYASIN] | 1736 | 1928 | 90% | 105% | 
40 | O=C1C=C(O)C(=O)c2ccccc21 [LAWSONE] |  |  | 54% | 34% | 100 nL (luminescence): 840; 200 nL (luminescence): 1140
41 | Oc1ccc2c(c1)OCC1c3cc4c(cc3OC21)OCO4 (stereo not drawn) [MAACKIAIN] |  |  | 74% | 95% | 100 nL (luminescence) [3]: 1492; 200 nL (luminescence) [4]: 1772
